Columns and labels:
physchem = format: physicochemical; details: for chromatographic logP: Table 1, compounds of formula (I), method [a]: LC-UV, acidic range, 0.1% formic acid in water and acetonitrile
Description: Measurement of Log P values as provided herein was performed according to EEC directive 79/831 Annex V.A8 by HPLC (High Performance Liquid Chromatography) on reversed phase columns with the following methods: • ^[a]
If more than one Log P value is available within the same method, all the values are given and separated by “+”.
Lambda-max-values were determined using UV-spectra from 200 nm to 400 nm and the peak values of the chromatographic signals

Alternaria alternata = Alternaria alternata in vitro cell test; format: cell-based; details: 120 h, 20 ppm of active ingredient, liquid culture with spores, 5 days incubation, spectrometric measurement of mycelium growth, read-out: efficacy (inhibition of fungal growth)
Description: (§1) B-5. Alternaria alternata In Vitro Cell Test • Solvent: DMSO • Culture medium: 14.6 g anhydrous D-glucose (VWR), 7.1 g Mycological Peptone (Oxoid), 1.4 g granulated Yeast Extract (Merck), QSP 1 liter • Inoculum: spores suspension • Fungicides were solubilized in DMSO and the solution used to prepare the required range of concentrations. […] A spore suspension of A. alternata was prepared and diluted to the desired spore density. Fungicides were evaluated for their ability to inhibit spore germination and mycelium growth in liquid culture assay. The compounds were added in the desired concentration to the culture medium with spores. After 5 days incubation, fungi-toxicity of compounds was determined by spectrometric measurement of mycelium growth. Inhibition of fungal growth was determined by comparing the absorbance values in wells containing the fungicides with the absorbance in control wells without fungicides.

Pyricularia oryzae = assay: microbe, parasite or virus in culture; format: cell-based; details: 120 h, read-out: efficacy (inhibition of fungal growth)
[1] = test system: Colletotrichum lindemuthianum; assay: Colletotrichum lindemuthianum in vitro cell test; format: cell-based; details: 144 h, 20 ppm of active ingredient, liquid culture with spores, 6 days incubation, spectrometric measurement of mycelium growth, read-out: efficacy (inhibition of fungal growth)
Description: as §1, with “B-7. Colletotrichum lindemuthianum In” for “B-5. Alternaria alternata In”, “of C. lindemuthianum” for “of A. alternata”, “inhibit spores” for “inhibit spore”, “After 6” for “After 5”

Fusarium culmorum = Fusarium culmorum in vitro cell test; format: cell-based; details: 96 h, read-out: efficacy (inhibition of fungal growth)
Description: B-9. Fusarium culmorum In Vitro Cell Test
• Solvent: DMSO • Culture medium: 14.6 g anhydrous D-glucose (VWR), 7.1 g Mycological Peptone (Oxoid), 1.4 g granulated Yeast Extract (Merck), QSP 1 liter • Inoculum: spore suspension
Fungicides were solubilized in DMSO and the solution used to prepare the required range of concentrations. The final concentration of DMSO used in the assay was ≤1%.
A spore suspension of F. culmorum was prepared and diluted to the desired spore density.
Fungicides were evaluated for their ability to inhibit spore germination and mycelium growth in liquid culture assay. The compounds were added in the desired concentration to the culture medium with spores. After 4 days incubation, fungi-toxicity of compounds was determined by spectrometric measurement of mycelium growth. Inhibition of fungal growth was determined by comparing the absorbance values in wells containing the fungicides with the absorbance in control wells without fungicides.

Septoria tritici = Septoria tritici in vitro cell test; format: cell-based; details: Zymoseptoria tritici, 168 h; 20 ppm of active ingredient; liquid culture with spores, 7 days incubation, spectrometric measurement of mycelium growth; read-out: efficacy (inhibition of fungal growth)
Description: B-8. Septoria tritici In Vitro Cell Test • Solvent: DMSO • Culture medium: 1 g KH2PO4 (VWR), 1 g K2HPO4 (VWR), 0.5 g Urea (VWR), 3 g KNO3 (Prolabo), 10 g saccharose (VWR), 0.5 g MgSO4, 7H2O (Sigma), 0.07 g CaCl2, 2H2O (Prolabo), 0.2 mg MnSO4, H2O (Sigma), 0.6 mg CuSO4, 5H2O (Sigma), 7.9 mg ZnSO4, 7H2O (Sigma), 0.1 mg H3BO3 (Merck), 0.14 mg NaMoO4, 2H2O (Sigma), 2 mg thiamine (Sigma), 0.1 mg biotine (VWR), 4 mg FeSO4, 7H2O (Sigma), QSP 1 liter • Inoculum: spore suspension Fungicides were solubilized in DMSO and the solution used to prepare the required range of concentrations. […] A spore suspension of S. tritici was prepared and diluted to the desired spore density. Fungicides were evaluated for their ability to inhibit spore germination and mycelium growth in liquid culture assay. The compounds were added in the desired concentration to the culture medium with spores. […] Inhibition of fungal growth was determined by comparing the absorbance values in wells containing the fungicides with the absorbance in control wells without fungicides.

`Cc1ccc(CC2CON=C(c3cc(Cl)ncc3Oc3cccc(C(F)(F)F)c3)N2)c(C)c1` (racemic) [Compound I-001, (5RS)-3-{2-chloro-5-[3-(trifluoromethyl)phenoxy]pyridin-4-yl}-5-(2,4-dimethylbenzyl)-5,6-dihydro-4H-1,2,4-oxadiazine] showed a chromatographic logP (physchem) of 4.56, an inhibition at 20 ppm (Alternaria alternata) of 90 to 100% and an inhibition at 20 ppm (Pyricularia oryzae) of 90 to 100%. For the same molecule, the inhibition at 20 ppm [1] was 90 to 100% and the inhibition at 20 ppm (Fusarium culmorum) was 90 to 100%.
For `FC(F)c1cccc(Oc2cnc(Cl)cc2C2=NOC[C@@H](Cc3ccc([C@H]4CCOC4)cc3Cl)N2)c1` (racemic) [Compound I-041, (5RS)-3-{2-chloro-5-[3-(difluoromethyl)phenoxy]pyridin-4-yl}-5-{2-chloro-4-[(3RS)-tetrahydrofuran-3-yl]benzyl}-5,6-dihydro-4H-1,2,4-oxadiazine], the chromatographic logP (physchem) was 3.81, the inhibition at 20 ppm (Alternaria alternata) was 90 to 100% and the inhibition at 20 ppm (Pyricularia oryzae) was 80 to 89%. The inhibition at 20 ppm [1] was 90 to 100% and the inhibition at 20 ppm (Septoria tritici) was 70 to 79%.
Work on `Cc1ccc(CC2CON=C(c3cc(N4CCCC4)ncc3Oc3cccc(C(F)(F)F)c3)N2)cc1` (racemic) [Compound I-056, (5RS)-5-(4-methylbenzyl)-3-{2-(pyrrolidin-1-yl)-5-[3-(trifluoromethyl)phenoxy]pyridin-4-yl}-5,6-dihydro-4H-1,2,4-oxadiazine] yielded a chromatographic logP (physchem) of 3.5, an inhibition at 20 ppm (Alternaria alternata) of 90 to 100% and an inhibition at 20 ppm (Pyricularia oryzae) of 80 to 89%. The inhibition at 20 ppm [1] was 90 to 100%.
`Cc1ccc(CC2CCN=C(c3cc(Cl)ncc3Oc3cccc(C(F)(F)F)c3)N2)c(C)c1` (racemic) [Compound I-088, rac-(6R)-2-[2-chloro-5-[3-(trifluoromethyl)phenoxy]-4-pyridyl]-6-[(2,4-dimethylphenyl)methyl]-1,4,5,6-tetrahydropyrimidine] gave a chromatographic logP (physchem) of 2.62, an inhibition at 20 ppm (Alternaria alternata) of 80 to 89% and an inhibition at 20 ppm [1] of 70 to 79%.
`Cc1ccc(CC2CC(=O)N=C(c3cc(Cl)ncc3Oc3cccc(C(F)(F)F)c3)N2)c(C)c1` (racemic) [Compound I-098, rac-(6R)-2-[2-chloro-5-[3-(trifluoromethyl)phenoxy]-4-pyridyl]-6-[(2,4-dimethylphenyl)methyl]-5,6-dihydro-1H-pyrimidin-4-one] showed a chromatographic logP (physchem) of 4.62, an inhibition at 20 ppm (Alternaria alternata) of 80 to 89% and an inhibition at 20 ppm [1] of 90 to 100%.
For `Cc1cc(C2CC2)ccc1CC1CON=C(c2cc(Cl)ncc2Oc2cccc(C(F)(F)F)c2)N1` (racemic) [Compound I-107, rac-(5R)-3-[2-chloro-5-[3-(trifluoromethyl)phenoxy]-4-pyridyl]-5-[(4-cyclopropyl-2-methyl-phenyl)methyl]-5,6-dihydro-4H-1,2,4-oxadiazine], the chromatographic logP (physchem) was 4.88, the inhibition at 20 ppm (Alternaria alternata) was 80 to 89% and the inhibition at 20 ppm (Pyricularia oryzae) was 90 to 100%. For the same molecule, the inhibition at 20 ppm [1] was 90 to 100% and the inhibition at 20 ppm (Septoria tritici) was 90 to 100%.
With `Cc1ccc(CC2CON=C(c3c(Oc4cccc(C(F)(F)F)c4)cnc(Cl)c3I)N2)c(C)c1` (centres unmarked) [Compound I-077] the LogP (physchem) was 4.66^[a].
With `Clc1ccc(CC2CON=C(c3cc(Cl)ncc3Oc3ccc4c(c3)CCO4)N2)c(Cl)c1` (centres unmarked) [Compound I-130] the LogP (physchem) was 4.30^[a].
For `C=CC(C)Nc1c(Cl)ncc(Oc2cccc(C(F)(F)F)c2)c1C1=NOCC(Cc2ccc(C)cc2C)N1` (centres unmarked) [Compound I-131], the LogP (physchem) was 5.19^[a].
With `Cc1ccc(CC2CON=C(c3cc(Cl)ncc3Oc3cccc(N(C)C)c3)N2)c(C)c1` (centres unmarked) [Compound I-132] the LogP (physchem) was 4.47^[a].
For `Cc1ccc(CC2CON=C(c3c(Oc4cccc(C(F)(F)F)c4)cnc(Cl)c3-c3ccccc3)N2)c(C)c1` (centres unmarked) [Compound I-133], the LogP (physchem) was 5.04^[a].
In the case of `CC(=O)Oc1cccc(Oc2cnc(Cl)cc2C2=NOCC(Cc3ccc(C)cc3C)N2)c1` (centres unmarked) [Compound I-134], the LogP (physchem) is reported as 3.90^[a].
In the case of `Cc1cccc(Oc2cnc(Cl)cc2C2=NOCC(Cc3ccc(Cl)cc3Cl)N2)c1F` (centres unmarked) [Compound I-135], the LogP (physchem) is reported as 4.75^[a].
With `Cc1ccc(CC2CON=C(c3cc(Cl)ncc3Oc3cccc(C)c3F)N2)c(Cl)c1` (centres unmarked) [Compound I-136] the LogP (physchem) was 4.66^[a].
For `Oc1cc(C2=NOCC(Cc3ccc(Br)cc3Cl)N2)c(Oc2cccc(C(F)F)c2)cn1` (centres unmarked) [Compound I-137], the LogP (physchem) was 4.56^[a].
With `FC(F)(F)c1cccc(Oc2cnc(Cl)cc2C2=NOCC(Cc3csc(Cl)c3)N2)c1` (centres unmarked) [Compound I-138] the LogP (physchem) was 4.38^[a].
With `Cc1ccc(CC2CON=C(c3cc(Cl)ncc3Oc3cnc4c(c3)CCC4)N2)c(C)c1` (centres unmarked) [Compound I-140] the LogP (physchem) was 3.17^[a].
For `CCc1cccc(Oc2cnc(Cl)cc2C2=NOCC(Cc3ccc(Cl)cc3Cl)N2)c1F` (centres unmarked) [Compound I-141], the LogP (physchem) was 5.16^[a].
With `CCOc1cccc(Oc2cnc(Cl)cc2C2=NOCC(Cc3ccc(C)cc3C)N2)c1` (centres unmarked) [Compound I-142] the LogP (physchem) was 4.59^[a].
With `Cc1ccc(CC2CON=C(c3cc(Cl)ncc3Oc3cccc(Cl)c3F)N2)c(C)c1` (centres unmarked) [Compound I-144] the LogP (physchem) was 4.59^[a].
With `FC(F)(F)c1cccc(Oc2cnc(Cl)cc2C2=NOCC(Cc3cc(Cl)sc3Cl)N2)c1` (centres unmarked) [Compound I-145] the LogP (physchem) was 4.83^[a].
For `Cc1ccc(C2CCON=C(c3cc(Cl)ncc3Oc3cccc(C(F)(F)F)c3)N2)cc1` (centres unmarked) [Compound I-146], the LogP (physchem) was 2.06^[a].
For `COc1cccc(Oc2cnc(Cl)cc2C2=NOCC(Cc3ccc(C)cc3C)N2)c1F` (centres unmarked) [Compound I-147], the LogP (physchem) was 4.06^[a].
In the case of `FC(F)(F)Oc1cccc(Oc2cnc(Cl)cc2C2=NOCC(Cc3ccc(Cl)cc3Cl)N2)c1` (centres unmarked) [Compound I-148], the LogP (physchem) is reported as 4.88^[a].
With `Fc1c(Oc2cnc(Cl)cc2C2=NOCC(Cc3ccc(Cl)cc3Cl)N2)cccc1OC(F)(F)F` (centres unmarked) [Compound I-149] the LogP (physchem) was 4.88^[a].
In the case of `Cc1ccc(CC2CON=C(c3c(Oc4cccc(C(F)(F)F)c4)cnc(Cl)c3C3CC3)N2)c(C)c1` (centres unmarked) [Compound I-150], the LogP (physchem) is reported as 4.70^[a].
In the case of `Cc1cccc(CC2CON=C(c3cc(Cl)ncc3Oc3cccc(Cl)c3F)N2)c1Cl` (centres unmarked) [Compound I-151], the LogP (physchem) is reported as 4.62^[a].
For `COc1cc(C2=NOCC(Cc3ccc(C)cc3C)N2)c(Oc2cccc(C(F)(F)F)c2)cn1` (centres unmarked) [Compound I-152], the LogP (physchem) was 4.55^[a].
With `COCc1cccc(Oc2cnc(Cl)cc2C2=NOCC(Cc3ccc(C)cc3C)N2)c1` (centres unmarked) [Compound I-153] the LogP (physchem) was 4.10^[a].
In the case of `CSc1cccc(Oc2cnc(Cl)cc2C2=NOCC(Cc3ccc(C)cc3C)N2)c1F` (centres unmarked) [Compound I-154], the LogP (physchem) is reported as 4.47^[a].
With `COc1ccc(C2CCON=C(c3cc(Cl)ncc3Oc3cccc(C(F)(F)F)c3)N2)cc1` (centres unmarked) [Compound I-155] the LogP (physchem) was 1.90^[a].
For `C#Cc1ccc(CC2CON=C(c3cc(Cl)ncc3Oc3cccc(C(F)(F)F)c3)N2)c(C)c1` (centres unmarked) [Compound I-156], the LogP (physchem) was 4.08^[a].
In the case of `Cc1cccc(C2CON=C(c3cc(Cl)ncc3Oc3cccc(C(F)(F)F)c3)N2)c1C` (centres unmarked) [Compound I-157], the LogP (physchem) is reported as 4.23^[a].
With `Cc1cc(Br)ccc1CC1CON=C(c2cc(Cl)ncc2Oc2cccc(C(F)(F)F)c2)N1` (centres unmarked) [Compound I-158] the LogP (physchem) was 4.81^[a].

Source: patent US12534456B2, “Heterocyclyl pyridines as novel fungicides” (Bayer Aktiengesellschaft, priority 2020, dated 2026)
